Like-named read-outs stand apart in the source and are kept apart here.
Experiments:
[1] = Fluorescence properties and quantum yield measurements of the BAA library; format: physicochemical; set-up: FWHM (full-width-at half max): unit not given here; conditions: anhydrous DMSO; for λmax ABS / λmax EM: polystyrene 96 well plate; for FWHM (full-width-at half max): emission; for φfl (quantum yield): relative to reference fluorophore at three concentrations
Procedure: General Instruments. Synthesized sample purification was performed with an Agilent 1260 Infinity HPLC utilizing a C18 column (150mm×21.2 mm). MS (HRMS, ESI) spectra data was collected with an Agilent 6244 TOF LC/MS with diode array detector VL+ and C18 column (4.6 mm×50 mm). Absorbance and fluorescence data were measured on a SpectraMax M5 Microplate reader. NMR spectra, ^1H and ^13C, were recorded on a Bruker ARK400 spectrometer. BAA microscopy screening in cells for organelle specificity and signal-to-background ratio was completed with an Axio Zeiss Light Microscope and 63× oil immersion objective.
Fluorescence Properties and Quantum Yield Measurements. Spectroscopic characterizations were performed in anhydrous DMSO in polystyrene 96 well plate. Analysis included the maximum absorbance wavelength, maximum fluorescence emission wavelength, full-width-at half max, and quantum yield. Quantum yields (φfl) were determined by comparing the area under the emission spectrum of the BAA compound to a reference fluorophore solution at three concentrations using equation 1, where Grad represents the gradient from the plots of integrated fluorescence intensity vs absorbance at three concentrations and q is the refractive index of the solvent. Fluorescein in 0.1 M NaOH (φfl=0.91)^3 was the reference for samples with a max absorbance up to 510 nm, where an excitation of 470 nm was used with the emission integrated between 490 to 800 nm. Rhodamine B in ethanol (φfl=0.70) was the reference for samples with a max absorbance between 511-595 nm, where an excitation of 525 nm was used with the emission integrated between 545 to 800 nm. Cresyl violet in methanol (φfl=0.54)^4 was the reference for samples with a max absorbance above 595 nm, where an excitation of 570 nm was used with the emission integrated between 590 to 800 nm.

[2] = cited from earlier work

Molecule	Stokes Shift [1] [nm]	λmax ABS [1] [nm]	λmax EM [1] [nm]	FWHM (full-width-at half max) [1]	φfl (quantum yield) [1]	φfl (quantum yield) ([2]; in ethanol, reference for max absorbance between 511-595 nm)	φfl (quantum yield) ([2]; in methanol, reference for max absorbance above 595 nm)
CC1=CC(C=Cc2ccc(-c3cccs3)nc2)=[N+]2C1=Cc1ccc(CCC(=O)O)n1[B-]2(F)F [BAA-56a]	10	585	595	32	0.91	–	–
CC1=CC(C=Cc2cnn(-c3ccccc3C)c2C)=[N+]2C1=Cc1ccc(CCC(=O)O)n1[B-]2(F)F [BAA-57a]	16	574	590	45	0.75	–	–
CC1=CC(C=Cc2cnn(-c3ccccc3C)c2C)=[N+]2C1=Cc1ccc(C(=Cc3cnn(-c4ccccc4C)c3C)CC(=O)O)n1[B-]2(F)F [BAA-57b]	16	575	591	38	0.75	–	–
CC1=CC(C=Cc2cccc(-c3ccc(S(C)(=O)=O)cc3)n2)=[N+]2C1=Cc1ccc(CCC(=O)O)n1[B-]2(F)F [BAA-59a]	10	571	581	30	0.53	–	–
CC1=CC(C=Cc2cccc3cnccc23)=[N+]2C1=Cc1ccc(CCC(=O)O)n1[B-]2(F)F [BAA-62a]	15	579	594	33	0.68	–	–
CC1=CC(C=Cc2cc3ccc(C)cc3nc2Cl)=[N+]2C1=Cc1ccc(CCC(=O)O)n1[B-]2(F)F [BAA-63a]	15	592	607	39	0.43	–	–
CC1=CC(C=Cc2c[nH]nc2-c2ccc(Cl)cc2)=[N+]2C1=Cc1ccc(CCC(=O)O)n1[B-]2(F)F [BAA-64a]	17	576	593	37	0.80	–	–
CC1=CC(C=Cc2ccc(-c3ccccc3F)o2)=[N+]2C1=Cc1ccc(CCC(=O)O)n1[B-]2(F)F [BAA-65a]	16	606	622	54	0.21	–	–
CC1=CC(C=Cc2ccc(-c3ccc(Cl)s3)nc2)=[N+]2C1=Cc1ccc(CCC(=O)O)n1[B-]2(F)F [BAA-66a]	11	587	598	34	0.28	–	–
CC1=CC(C=Cc2ccc(-c3nccs3)cc2)=[N+]2C1=Cc1ccc(CCC(=O)O)n1[B-]2(F)F [BAA-68a]	10	585	595	30	0.17	–	–
CC1=CC(C=Cc2ccc(-c3cc(Cl)cc(Cl)c3)nc2)=[N+]2C1=Cc1ccc(CCC(=O)O)n1[B-]2(F)F [BAA-69a]	12	577	589	30	0.85	–	–
CC1=CC(C=Cc2ccc(-c3cccc(C(F)(F)F)c3)nc2)=[N+]2C1=Cc1ccc(CCC(=O)O)n1[B-]2(F)F [BAA-70a]	8	580	588	33	0.17	–	–
CC1=CC(C=Cc2ccc(-c3ccc(OC(F)(F)F)cc3)nc2)=[N+]2C1=Cc1ccc(CCC(=O)O)n1[B-]2(F)F [BAA-71a]	9	580	589	32	0.19	–	–
CC1=CC(C=Cc2ccc(-c3ccc(F)c(F)c3)nc2)=[N+]2C1=Cc1ccc(CCC(=O)O)n1[B-]2(F)F [BAA-72a]	10	580	590	31	0.40	–	–
COc1ccc(C=O)cc1OCCOc1cc(C=CC2=[N+]3C(=Cc4ccc(CCC(=O)O)n4[B-]3(F)F)C(C)=C2)ccc1OC [BAA-74a]	18	584	602	59	0.15	–	–
COc1ccc(C=O)cc1OCCOc1cc(C=CC2=[N+]3C(=Cc4ccc(C(=Cc5ccc(OC)c(OCCOc6cc(C=O)ccc6OC)c5)CC(=O)O)n4[B-]3(F)F)C(C)=C2)ccc1OC [BAA-74b]	17	583	600	51	0.22	–	–
CC1=CC(C=Cc2c[nH]c3c(OCc4ccccc4)cccc23)=[N+]2C1=Cc1ccc(CCC(=O)O)n1[B-]2(F)F [BAA-77a]	31	603	634	61	0.50	–	–
CCN(CC)c1ccc2c(-c3ccccc3C(=O)O)c3ccc(=[N+](CC)CC)cc-3oc2c1.[Cl-] [Rhodamine B]	–	–	–	–	–	0.70	–
Cresyl violet	–	–	–	–	–	–	0.54

More lines, main results first:

Stokes Shift [1] [nm]	λmax ABS [1] [nm]	λmax EM [1] [nm]	FWHM (full-width-at half max) [1]	φfl (quantum yield) [1]	Molecule	φfl (quantum yield) ([2]; in ethanol, reference for max absorbance between 511-595 nm)	φfl (quantum yield) ([2]; in methanol, reference for max absorbance above 595 nm)
16	575	591	38	0.75	CC1=CC(C=Cc2cnn(-c3ccccc3)c2C)=[N+]2C1=Cc1ccc(C(=Cc3cnn(-c4ccccc4)c3C)CC(=O)O)n1[B-]2(F)F [BAA-55b]	–	–
11	586	597	35	0.15	CC1=CC(C=Cc2ccc(-c3cccs3)nc2)=[N+]2C1=Cc1ccc(C(=Cc3ccc(-c4cccs4)nc3)CC(=O)O)n1[B-]2(F)F [BAA-56b]	–	–
10	572	582	30	0.70	COC(=O)c1ccc(-c2cccc(C=CC3=[N+]4C(=Cc5ccc(CCC(=O)O)n5[B-]4(F)F)C(C)=C3)c2)cc1 [BAA-58a]	–	–
16	588	604	37	0.47	CC1=CC(C=Cc2ccc(-c3cccs3)s2)=[N+]2C1=Cc1ccc(C(=Cc3ccc(-c4cccs4)s3)CC(=O)O)n1[B-]2(F)F [BAA-60b]	–	–
11	587	598	61	0.15	CCSc1ccc(-c2ccc(C=CC3=[N+]4C(=Cc5ccc(CCC(=O)O)n5[B-]4(F)F)C(C)=C3)cn2)cc1 [BAA-67a]	–	–
14	579	593	46	0.55	CC1=CC(C=Cc2ccc(OCCBr)cc2)=[N+]2C1=Cc1ccc(CCC(=O)O)n1[B-]2(F)F [BAA-73a]	–	–
49	614	663	91	0.08	CC1=CC(C=Cc2ccc(N(CCC#N)CCC#N)cc2)=[N+]2C1=Cc1ccc(CCC(=O)O)n1[B-]2(F)F [BAA-75a]	–	–
55	605	660	91	0.18	CC1=CC(C=Cc2ccc(N(CCC#N)CCC#N)cc2)=[N+]2C1=Cc1ccc(C(=Cc3ccc(N(CCC#N)CCC#N)cc3)CC(=O)O)n1[B-]2(F)F [BAA-75b]	–	–
11	581	592	46	0.19	CC1=CC(C=Cc2ccc(OCc3ccc([N+](=O)[O-])cc3)cc2)=[N+]2C1=Cc1ccc(CCC(=O)O)n1[B-]2(F)F [BAA-78a]	–	–
14	579	593	39	0.37	CC1=CC(C=Cc2ccc(OCc3ccc([N+](=O)[O-])cc3)cc2)=[N+]2C1=Cc1ccc(C(=Cc3ccc(OCc4ccc([N+](=O)[O-])cc4)cc3)CC(=O)O)n1[B-]2(F)F [BAA-78b]	–	–

Source: patent publication US20170233414A1, “DERIVATIVES OF BODIPY” (OREGON HEALTH & SCIENCE UNIVERSITY, priority 2016, published 2017)
